Measured values reported in patent US11292803B2, “Bioreducible N-oxide-based probes for imaging of hypoxia” (THE BOARD OF TRUSTEES OF THE UNIVERSITY OF ILLINOIS, priority 2018, dated 2022).

How the values were obtained:
[1] = test system: ischemic hindlimb tissue; test: In vivo PA imaging of hindlimb ischemia model; parameters: species or system BALB/c mice; conditions: intramuscular 50 μL, 50 μM; 1 hour after injection
Protocol: After observing the hypoxia-mediated response of HyP-1 in the hindlimb ischemia model, attention was turned to detecting this response using PA imaging. As described above, surgical ligation was employed to induce ischemia, and HyP-1 (50 μL, 50 μM) was administered via intramuscular injection.
(§1) All in vivo imaging experiments were performed with the approval of the Institutional Animal Care and Use Committee of the University of Illinois at Urbana-Champaign, following the principles outlined by the American Physiological Society on research animal use. Female mice (5-6 weeks old) were acquired from The Jackson Laboratory. […] Animals that underwent unsuccessful surgery as determined by laser Doppler perfusion imaging were excluded from analysis.
Prior to imaging, hair was removed from the lower body half by shaving and treating with a topical hair removal cream. Mice were positioned on their sides such that the area to be imaged was directly above the light source. Images were acquired using the Step and Shoot mode with 120 angles and 30 pulses per angle. Data was analysed using OsiriX software. […] ROIs of equal area were drawn to include all visible signal in the image, and mean PA signal in each ROI was recorded. Change in PA signal was calculated by subtracting signal from images taken prior to injection from those at given time points.

[2] = test system: 4T1 cells; test: Ratiometric fluorescence of cells, IVIS Spectrum; assay type: cell-based, murine; conditions: 4T1 cells, 5 μM HyP-1, 4 hours, IVIS Spectrum
Protocol: Ratiometric fluorescence imaging was also performed on 4T1 cells cultured in 6-well plates using an IVIS Spectrum imaging system. Cells were stained with a 5 μM solution of HyP-1 and incubated in either normoxic or hypoxic conditions for 4 hours (FIG. 5c). […] To further verify the in vitro results and determine the cellular factors responsible for HyP-1 reduction, cells were also stained with HyP-1 solutions containing either BIPY or DPI at multiple concentrations and incubated under hypoxic conditions.
Authenticated 4T1 cells were purchased from ATCC. Cells were grown in RPMI 1640 medium supplemented with 10% fetal bovine serum. Cells were cultured at 37° C. in 5% CO2 and 20% 02 for normoxic conditions. Hypoxic cell culture was performed by incubating cells in a sealed container with a Mitsubishi AnaeroPack™ anaerobic gas generator. Hypoxic conditions were verified with the use of a Mitsubishi RT Anaero-Indicator.
For cellular imaging using the IVIS Spectrum imaging system, cells were plated in a 6-well plate at an initial density of 1.7×10^4 cells/mL and allowed to grow until 60-80% confluent (approximately 3 days). Media was removed and cells were washed with PBS. A […] solution of HyP-1 in serum-free medium was added, and cells were incubated under normoxic or hypoxic conditions for 4 hours. For BIPY and DPI experiments, the staining solution was supplemented with the compound at the appropriate concentration, and ratiometric turn-on was reported relative to a vehicle control. Images were obtained using excitation and emission filter sets of 675/720 nm and 745/800 nm. Regions of interest (ROIs) were drawn around cell-containing wells, and ratiometric signal was calculated by determining the ratio of radiant efficiency corresponding to 800 nm and 720 nm emissions.

[3] = test system: ischemic hindlimb tissue; test: In vivo fluorescence imaging of hindlimb ischemia model; parameters: species or system BALB/c mice; conditions: intramuscular 50 μL, 50 μM; over 1 hour
Protocol: To visualize the response of HyP-1 in a model of rapidly developing hypoxia, a murine hindlimb ischemia model of peripheral artery disease was employed. Ischemia was induced in the right hindlimb of BALB/c mice via ligation of the femoral artery. […] After a 1-hour recovery period, HyP-1 (50 μL, 50 μM) was administered via intramuscular injection into both hindlimbs of the mouse. To visualize the time-dependent response of HyP-1 in the ischemic and non-ischemic tissue, ratiometric fluorescence imaging was performed over the course of 1 hour immediately following injection. […]
as §1, with “use.” for “use. Female mice (5-6 weeks old) were acquired from The Jackson Laboratory.”
Images were obtained using epi-fluorescence with excitation filters of 675 and 745 and corresponding emission filters of 720 and 800, respectively. […] ROIs of equal area were drawn around signals, and the total radiant efficiency in each ROI was determined. Ratiometric signal was calculated by determining the ratio of radiant efficiency corresponding to 800 nm and 720 nm emissions.

[4] = Response to metal ions and reactive oxygen, nitrogen and sulfur species; conditions: 2 h, 37° C., phosphate buffer pH 7.4
Protocol: FIG. 9. Ratiometric fluorescent turn-on response of HyP-1 (2 μM) in the presence of various metal ions in 0.1 M potassium phosphate buffer (pH 7.4, 0.1% v/v CrEL) after 2 h incubation at 37° C. Concentrations used were 2 mM for Na^+, Mg^2+, K^+ and Ca^2+, and 50 μM for all other metal ions.
FIG. 10. Ratiometric fluorescence turn-on response of HyP-1 (2 μM) in the presence of various reactive oxygen, nitrogen and sulfur species (100 μM) in 0.1 M potassium phosphate buffer (pH 7.4, 0.1% v/v CrEL) after 2 h incubation at 37° C.
(§2) In addition to Fe(II), the response of HyP-1 to a variety of alkali, alkaline earth and transition metals was also determined. […] To further evaluate the stability of HyP-1, a 10 μM solution of the probe was exposed to ambient light and temperature for up to 5 days. Additionally, a 10 μM solution of HyP-1 supplemented with human plasma was incubated at 37° C. for 3 hours. […] As mentioned previously, a major limitation of 2-nitroimidazole-based hypoxia probes is their susceptibility to oxygen-independent reduction via two-electron processes, such as by bacterial nitroreductases. […] Finally, the photostability of both HyP-1 and red-HyP-1 was evaluated via continuous PA image acquisition at 770 nm over the course of 1 hour.

[5] = Stability in human plasma; assay type: in vitro ADME; conditions: 10 μM solution supplemented with human plasma, 37° C., 3 hours
Protocol: FIG. 12. Fluorescence intensity (Ex.=670 nm) of HyP-1 (2 μM) at the indicated time points during incubation in 0.1 M potassium phosphate buffer (pH 7.4) supplemented with human plasma (20% v/v) at 37° C. for 3 h.
as §2

CC[N+]([O-])(CC)c1ccc(-c2cc(-c3ccccc3)c3n2[B-](F)(F)[N+]2=C(c4ccc(OC)cc4)C=C(c4ccccc4)C2=N3)cc1 [HyP-1, 4-(5,5-difluoro-7-(4-methoxyphenyl)-1,9-diphenyl-5H-5λ^4,6λ^4-dipyrrolo[1,2-c:2′,1′-f][1,3,5,2]triazaborinin-3-yl)-N,N-diethylaniline oxide]
PA signal enhancement, ischemic tissue versus control leg [1]: 3.1 fold
ratiometric response, hypoxic versus normoxic wells [2]: 2.5 fold
ratiometric signal, ischemic tissue versus control [3]: 3 fold
turn-on response to alkali, alkaline earth and transition metals [4]: No significant turn-on
decomposition in human plasma [5]: no substantial decomposition
